The subject of one series is HEK-293T. Put plainly: Cytotoxicity against HEK293T cells at 20 uM by alamar blue assay. The series is classed as cell-based. As to conditions: human. On the technique in general: Resazurin is reduced to fluorescent resorufin, in cell work by metabolically active cells.
The nature of series [1]: Solubility of the compound at pH 7.4. The series is classed as physicochemical. As to conditions: buffer.
The target in series [2] is T1, Nucleotide-binding oligomerization domain-containing protein 1 (Homo sapiens, UniProt Q9Y239).
T1 sequence (Q9Y239 whole entry): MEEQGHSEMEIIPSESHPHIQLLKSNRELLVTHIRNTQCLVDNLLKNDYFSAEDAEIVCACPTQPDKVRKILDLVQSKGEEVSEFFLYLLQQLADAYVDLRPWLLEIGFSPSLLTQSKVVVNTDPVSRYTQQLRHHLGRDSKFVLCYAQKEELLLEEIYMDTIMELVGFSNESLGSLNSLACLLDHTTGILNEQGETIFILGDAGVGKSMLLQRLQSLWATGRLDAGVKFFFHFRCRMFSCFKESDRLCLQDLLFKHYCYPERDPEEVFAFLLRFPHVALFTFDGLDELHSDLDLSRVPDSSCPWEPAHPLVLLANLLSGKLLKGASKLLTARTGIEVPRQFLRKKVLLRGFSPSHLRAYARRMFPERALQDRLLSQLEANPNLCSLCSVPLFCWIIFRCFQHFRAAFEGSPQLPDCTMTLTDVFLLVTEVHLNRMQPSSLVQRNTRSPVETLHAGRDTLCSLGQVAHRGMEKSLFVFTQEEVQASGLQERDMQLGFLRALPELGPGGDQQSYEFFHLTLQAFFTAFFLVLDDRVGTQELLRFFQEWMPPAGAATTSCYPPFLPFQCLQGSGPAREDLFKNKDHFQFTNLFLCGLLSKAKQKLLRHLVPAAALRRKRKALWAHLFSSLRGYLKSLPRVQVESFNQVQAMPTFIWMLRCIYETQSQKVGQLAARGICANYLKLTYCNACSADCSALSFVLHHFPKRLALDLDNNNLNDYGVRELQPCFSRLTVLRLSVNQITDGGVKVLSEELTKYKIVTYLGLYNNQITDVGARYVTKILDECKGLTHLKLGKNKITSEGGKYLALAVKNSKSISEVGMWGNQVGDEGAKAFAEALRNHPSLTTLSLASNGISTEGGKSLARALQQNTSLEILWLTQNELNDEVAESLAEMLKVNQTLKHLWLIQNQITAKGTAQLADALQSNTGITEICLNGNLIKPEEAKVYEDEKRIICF

The target in series [3] is Nucleotide-binding oligomerization domain-containing protein 2 (Homo sapiens, UniProt Q9HC29).
Nucleotide-binding oligomerization domain-containing protein 2, sequence (Q9HC29 whole entry, the tested form may be a part): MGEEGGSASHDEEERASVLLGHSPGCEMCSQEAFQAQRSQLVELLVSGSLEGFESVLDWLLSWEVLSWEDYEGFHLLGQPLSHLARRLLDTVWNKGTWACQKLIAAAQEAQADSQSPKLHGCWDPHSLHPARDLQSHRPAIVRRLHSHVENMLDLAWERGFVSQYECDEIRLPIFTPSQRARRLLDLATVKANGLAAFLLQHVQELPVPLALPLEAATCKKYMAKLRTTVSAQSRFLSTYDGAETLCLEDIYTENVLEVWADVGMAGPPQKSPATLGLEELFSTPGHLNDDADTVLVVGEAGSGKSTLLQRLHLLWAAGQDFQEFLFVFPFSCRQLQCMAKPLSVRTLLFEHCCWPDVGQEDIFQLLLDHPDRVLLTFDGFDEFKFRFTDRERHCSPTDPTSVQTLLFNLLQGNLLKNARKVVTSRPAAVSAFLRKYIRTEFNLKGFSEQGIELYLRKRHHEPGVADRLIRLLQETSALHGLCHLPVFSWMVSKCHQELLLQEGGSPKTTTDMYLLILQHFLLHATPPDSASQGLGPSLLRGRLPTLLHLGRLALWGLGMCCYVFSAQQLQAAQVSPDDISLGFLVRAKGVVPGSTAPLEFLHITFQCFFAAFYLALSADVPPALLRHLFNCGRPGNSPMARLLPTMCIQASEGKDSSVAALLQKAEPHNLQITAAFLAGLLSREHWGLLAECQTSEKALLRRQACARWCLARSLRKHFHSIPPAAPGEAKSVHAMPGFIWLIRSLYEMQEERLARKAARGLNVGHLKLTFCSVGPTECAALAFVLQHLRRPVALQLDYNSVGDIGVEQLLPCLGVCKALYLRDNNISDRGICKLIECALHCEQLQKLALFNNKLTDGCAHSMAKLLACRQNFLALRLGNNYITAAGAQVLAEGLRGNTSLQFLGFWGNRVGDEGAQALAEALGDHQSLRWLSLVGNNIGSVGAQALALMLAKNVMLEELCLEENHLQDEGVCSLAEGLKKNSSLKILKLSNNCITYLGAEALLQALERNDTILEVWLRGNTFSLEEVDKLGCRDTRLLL
A short description of another series: cells. As to conditions: Homo sapiens, HEK-293T, 14 h.

Values after ≈ are worked out from the molar mass of the structure shown. A value given as a limit tells only on which side of the number the result lay.

Description for cells: Inhibition of TNFalpha-induced NFkappaB activation in HEK293T cells after 14 hrs by luciferase reporter gene assay

Consider `CCC(=O)N1CCc2cc(S(=O)(=O)N3CCN(c4ccc(Cl)cc4)CC3)ccc21`, for which, in the series with HEK-293T, the Activity is 0%. The molecule also had a solubility in series [1] of 0.1 µg/mL (≈ 0.23 µM). The IC50 (in series [2]; in series [3]; in the series “cells”) was more than 20 µM throughout.
On to `O=C(Nc1ccc(OC(F)(F)F)cc1)c1ccc(CN2CCc3ccccc3C2)cc1`, for which, in the series with HEK-293T, the Activity is reported as 0%. Moreover, the concentration for half-maximal inhibition (IC50) came to 0.08 µM in series [2], 0.03 µM in series [3] and 0.03 µM in the series “cells”.
In turn, `O=C(Nc1ccc(S(=O)(=O)O)cc1)c1ccc(CN2CCc3ccccc3C2)cc1` had an Activity with HEK-293T of 0%. Moreover, the IC50 (in series [2]; in series [3]; in the series “cells”) was more than 20 µM in each case.
Molecule `COc1ccc(NC(=O)c2ccc(CN3CCc4ccccc43)cc2)cc1` displayed an Activity with HEK-293T of 0%. The 50% inhibitory concentration (IC50) (in series [2]; in series [3]; in “cells”) was more than 20 µM each time.
`CCOc1ccc(NC(=O)c2ccc(CN3CCc4ccccc43)cc2)cc1` had an Activity in the series with HEK-293T of 0%. Further, the IC50 (in series [2]; in series [3]; in the series “cells”) was more than 20 µM each time.
As to `CCOc1ccc(NC(=O)c2ccc(CCN3CCc4ccccc4C3)cc2)cc1`, the Activity in the series with HEK-293T is recorded as 0%. For the same molecule, the 50% inhibitory concentration (IC50) (in series [2]; in series [3]; in the series “cells”) was more than 20 µM each time.
For the molecule `O=C(C1CC1)N1CCc2cc(S(=O)(=O)N3CCN(c4ccc(Cl)cc4)CC3)ccc21`, the Activity in the series with HEK-293T was 0%. In series [1], this molecule yielded a solubility of 0.1 µg/mL (≈ 0.224 µM). The half-maximal inhibitory concentration (IC50) (in series [2]; in series [3]; in “cells”) was more than 20 µM throughout.
The molecule `O=C(Nc1ccc(CN2CCc3ccccc3C2)cc1)c1ccc(Cl)cc1` yielded an Activity in the series on HEK-293T of 0%. Besides, the IC50 (in series [2]; in series [3]; in the series “cells”) was more than 20 µM each time.
`Nc1nc2ccccc2n1C(=O)Cc1ccccc1` displayed an Activity with HEK-293T of 0%. Moreover, the IC50 (in series [2]; in series [3]; in “cells”) was more than 20 µM throughout.
On to `Cc1ccc(N2CCN(S(=O)(=O)c3ccc4c(c3)CC(C)N4C(=O)C3CC3)CC2)cc1` (racemic), for which, in the series on HEK-293T, the Activity is given as 0%. The molecule further came in with a solubility in series [1] of 0.1 µg/mL (≈ 0.227 µM). The concentration for half-maximal inhibition (IC50) (in series [2]; in series [3]; in “cells”) was more than 20 µM throughout.
Take `CC1Cc2cc(S(=O)(=O)N3CCN(c4ccccc4)CC3)ccc2N1C(=O)C1CC1` (racemic): the Activity with HEK-293T amounted to 0%. In addition, the solubility in series [1] is 0.1 µg/mL (≈ 0.235 µM). In addition, the half-maximal inhibitory concentration (IC50) is more than 20 µM in series [2], 17.4 µM in series [3] and 15.3 µM in “cells”.
In turn, `CCOc1ccc(C(=O)Nc2ccc(CN3CCc4ccccc4C3)cc2)cc1` registered an Activity in the series with HEK-293T of 0%. The IC50 (in series [2]; in series [3]; in “cells”) was more than 20 µM each time.
For `COc1ccc(NC(=O)c2ccc(CN3CCCCC3)cc2)cc1`, in the series on HEK-293T, the Activity is 0%. Moreover, the IC50 (in series [2]; in series [3]; in “cells”) was more than 20 µM in each case.
The molecule `O=C(Nc1ccc(Cl)cc1)c1ccc(CCN2CCc3ccccc3C2)cc1` gave an Activity in the series on HEK-293T of 0%. Moreover, the 50% inhibitory concentration (IC50) (in series [2]; in series [3]; in “cells”) was more than 20 µM throughout.
As for `CCC(=O)N1CCc2cc(S(=O)(=O)N3CCN(c4ccc(C(C)=O)cc4)CC3)ccc21`, in the series with HEK-293T, the Activity worked out at 0%. Moreover, the concentration in solution in series [1] (solubility) came to 0.1 µg/mL (≈ 0.226 µM). In addition, the half-maximal inhibitory concentration (IC50) (in series [2]; in series [3]; in the series “cells”) was more than 20 µM throughout.
With `CC(=O)c1ccc(N2CCN(S(=O)(=O)c3ccc4c(c3)CC(C)N4C(=O)C3CC3)CC2)cc1` (racemic), the Activity with HEK-293T is listed as 0%. This molecule had a solubility in series [1] of 0.1 µg/mL (≈ 0.214 µM). Further, the values for the IC50 (in series [2]; in series [3]; in the series “cells”) were 10.3 µM, 7.9 µM and more than 20 µM, respectively.
Molecule `CSc1ccc(NC(=O)c2ccc(CN3CCc4ccccc43)cc2)cc1` came in with an Activity in the series on HEK-293T of 0%. In addition, the IC50 (in series [2]; in series [3]; in the series “cells”) was more than 20 µM throughout.
For the molecule `COc1ccc(C(=O)Cn2c(N)nc3ccccc32)cc1`, in the series with HEK-293T, the Activity was 0%. Besides, the IC50 (in series [2]; in series [3]; in “cells”) was more than 20 µM throughout.

One may read the solubility as the dissolved amount per volume that the medium holds. Low readings indicate a poorly soluble substance, high ones a readily soluble substance. As a reminder, the IC50 is the midpoint of a concentration-inhibition curve. Low readings indicate inhibition by little substance, high ones a need for much substance.

Values taken from ChEMBL document CHEMBL2016464, “Identification of Inhibitors of NOD1-Induced Nuclear Factor-κB Activation” (ACS Med Chem Lett, 2011).
